The values that follow come from US20070244200A1, “Method for triggering angiogenic response” (priority 2006, published 2007).

Several values for one entry are separate records, joined by “and”; a condition that tells them apart may be missing. Equal entries are not always repeated.

The subject of this test is rabbit aortic endothelial cells (RAEC). Put plainly: Cord formation on Matrigel (in vitro angiogenesis assay). To be noted: 18-24 h; for Percent Increase in Cord length, Set I / Percent Increase in Cord length, Set II / Percent Increase in Cord length, Set III: individual picture scores; for Percent Increase in Cord length, Mean: mean of 18 scores. The format is cell-based. As to the method: In carrying this invention, materials needed in this example include commercially available items as follows: a 96 Well Plate, for example, flat bottom 96 well plate (Falcon 353072); Media-BM-2 (Clonetics CC-3162), DMEM (Gibco Cat#11960044); Matrigel-Beckton Dickinson (Cat#40234); Cells; HUVEC (2×10^6/ml) in EBM-2 in EBM-2; and Image Analysis-Image-Pro Plus In this example, the assay is performed under hood is, a Laminar Flow Hood. Frozen Matrigel (Beckton Dickinson 40234) is placed overnight on ice to thaw. Then, a concentration of matrigel is adjusted to 10 mg/ml using DMEM media. An ice cold 96 well plate is then placed on ice in a flat dish. Using an ice cold tip, gently layer 60 μl of matrigel (10 mg/ml; kept on ice) in each well. Gently tap the plate so that matrigel is evenly distributed in each well. The assay thereafter involves the following steps and protocols of: Removing the ice under the plate and incubate the plate for 15 min at room temperature; transfer the plate to a 37° C. incubator for at least 30 min for the Matrigel to polymerize; prepare methanandamide at 2X the desired concentration in culture media; harvest RAEC (rabbit aortic endothelial cells) in culture media and adjust the cell density to 2×10^5/ml; mix 500 μl of drug with 500 μl of cell suspension and place 200 μl of this suspension in duplicate wells on polymerized matrigel (being cautious to not touch matrigel with the tip and to dispense cells very gently and slowly on the matrigel to avoid damage to matrigel layer); incubate the compound concentration in a 37° C. humidified incubator for 18-24 h observe condition of cords under a microscope.; take at least three pictures (10 X) from different fields from each well (or six pictures from duplicate wells); count number of junctions and tube length (mm) from each picture using Image Pro Image Analysis System; and analyze the data.
In accordance with a preferred embodiment of the present invention, the effect of methanandamide on rabbit aortic endothelial cells (RAEC) was tested for its ability to induce cord formation on matrigel. This process entails an accepted in vitro assay for angiogenesis. The procedures involve analyses with three different concentrations of methanandamide compound and repeated the experiments three different times in duplicate. As mentioned earlier above in the protocol, the 3 pictures from each well were taken. Therefore, for each concentration (data point) we have 18 scores. The analysis entails the measure of two parameters: (1) cord length; and (2) cord junction number.
In FIG. 1, there is shown representations for eighteen (18) scores of data points for each concentration of methanandamide compound analyzed. The scores indicated for each concentration of methanandamide resulted from three different concentrations of methanandamide, i.e. 10 nM, 50 nM, and 100 nM. Three (3) pictures taken from each field or well (Six (6) pictures for duplicate wells). Each treatment or analysis was done in duplicate in 3 separate sets, i.e., Set I, Set II, and Set III. Therefore, for each concentration data point has eighteen (18) scores (3×2×3=18 data points).

Turning to `CCCCC/C=C\C/C=C\C/C=C\C/C=C\CCCC(=O)N[C@H](C)CO` [Methanandamide, methyl arachidonyl ethanolamide], under “Methanandamide 10 nM”, the “Percent Increase in Cord length, Set I” value was 12% (2×) and 11% and 9% and 13% and 10%; the “Percent Increase in Cord length, Set II” value was 16% and 21% and 14% and 18% and 13% and 12%; the “Percent Increase in Cord length, Set III” value was 14% and 10% and 17% (2×) and 13% and 15%; the “Percent Increase in Cord length, Mean” value amounted to 14%. Also, where the note is “Methanandamide 50 nM”, the “Percent Increase in Cord length, Set I” value is 17% and 22% and 25% and 32% (2×) and 19%; the “Percent Increase in Cord length, Set II” value is 17% and 26% and 22% (2×) and 28% and 18%; the “Percent Increase in Cord length, Set III” value is 34% and 25% and 30, 30, Percent (2×) and 26% and 35%; the “Percent Increase in Cord length, Mean” value came out at 25%. In addition, for the setting “Methanandamide 100 nM”, the “Percent Increase in Cord length, Set I” value is 45% and 42% (2×) and 39% and 47% and 40%; the “Percent Increase in Cord length, Set II” value was 37% and 41% and 44% (2×) and 32% and 34%; the “Percent Increase in Cord length, Set III” value is 38% and 42% and 44% and 47% and 36% and 34%; the “Percent Increase in Cord length, Mean” value was 40%.
